One data set has as its target T1, α4β1 (Homo sapiens, UniProt P05556+P13612).
T1 construct: purchased R&D Systems 5668-A4
The experiment in a line: α4β1-VCAM Competition ELISA. The format is binding. The note with it: thioether peptide dimers, Table 7; read-out: ELISA A4B1. On the procedure: α4β1-VCAM Competition ELISA
A Nunc MaxiSorp plate was coated with rh VCAM-1/CD106 Fc chimera (R&D #862-VC) at 400 ng/well in 50 ul per well in 1×PBS and incubated overnight at 4° C. The solution was removed by shaking and then blocked with 250 ul of 1% BSA in 1×PBS per well. The wells were then incubated at room temperature for 1 hr with shaking. Each well was then washed once with wash buffer (50 mM Tris-HCl pH7.6, 100 mM NaCL, 1 mM MnCl2 or MgCl2, 0.05% Tween-20). 25 ul of serial dilutions of peptides starting at 200 μM in assay buffer (Assay buffer: 50 mM Tris-HCl pH7.6, 100 mM NaCl, 1 mM MnCl2 or MgCl2, 0.05% Tween-20) was added to each well. Additionally, 25 μl of α4β1 (R&D Systems #5668-A4) was added to each well at a fixed concentration of 120 nM. The final peptide and α4β1 concentrations were 100 μM and 60 nM, respectively. The plates were then incubated at 37° C. for 2 hr. The solution was then removed by shaking and each well was washed three times with wash buffer. 50 ul of 9F10 antibody at 4 ug/ml (purified mouse anti-human CD49d, BD Bioscience Cat #555502) was then added to each well, and the plate was incubated at room temperature for Ihr with shaking. The solution was again removed by shaking, and each well was washed three times with wash buffer. 50 μl of peroxidase-conjugated AffiniPure Goat anti-mouse IgG (Jackson immune research cat #115-035-003) diluted in 1:5000 in assay buffer was added to each well. The plate was incubated at room temperature for 30 min with shaking. Each well was then washed 3 times with wash buffer. 100 ul of TMB was then added to each well and closely observe during developing time. The reaction was stepped with 2N H2SO4 and absorbance was read at 450 nm.
On the technique in general: An ELISA detects its analyte on a solid surface through an enzyme-linked reagent.

Data set [1] in a line: Simulated Intestinal Fluid (SIF) Stability Assay. The note with it: pig, simulated intestinal fluid (SIF) with 1% porcine pancreatin, pH 6.5, porcine pancreatin, 37° C.; dimers, Table 7. The format is in vitro ADME. A digest of the protocol: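 Percent peptide remaining over time was measured by LC-MS/MS as the peak-area ratio to internal standard, and a first-order decay fit gave half-life. Digests contained 22 μM peptide and 1% pancreatin in pH 6.5 FaSSIF buffer at 37° C. Aliquots were quenched in organic solvent with formic acid.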

The target in a further data set is Jurkat E6.1 cells (Homo sapiens, UniProt P05556+P13612). As to the kind of experiment: α4β1-VCAM Cell Adhesion Assay. It is filed as cell-based. The note with it: thioether peptide dimers, Table 7; read-out: Cell Adhesion A4B1. As for the experimental part: α4β1-VCAM Cell Adhesion Assay
Jurkat E6.1 cells (Sigma #88042803) were cultured in RPMI 1640 HEPES medium (Invitrogen #22400-089) supplemented with 10% serum (Fetal Bovine Serum, Invitrogen #16140-071), 1 mM sodium pyruvate (Invitrogen #11360-070), 2 mM L-glutamine (Invitrogen #25030-081) and Penicillin-Streptomycin (Invitrogen #15140-122) at 100 units of penicillin and 100 μg of streptomycin per ml. The cells were washed two times in DMEM medium (ATCC #30-2002) supplemented with 0.1% BSA, 10 mM HEPES pH 7 and 1 mM MnCl2. The cells were re-suspended in supplemented DMEM medium at a density of 4×10^6 cells/ml.
A Nunc MaxiSorp plate was coated with rh VCAM-1/CD106 Fc chimera (R&D #862-VC) at 400 ng per well in 50 μl per well in 1×PBS and incubated at 4° C. overnight. The solution was then removed by shaking, blocked with 250 μl per well PBS containing 1% BSA, and incubated at 37° C. for 1 hr. The solution was removed by shaking. Peptides were diluted by serial dilution in a final volume of 50 μl per well (2× concentration). To each well, 50 μl of cells (200,000 cells) were added and the plate was incubated at 37° C., 5% CO2 for 30-45 min to allow cell adhesion. The wells were washed manually three times (100 μl per wash) with supplemented DMEM. After the final wash, 100 μl/well of supplemented DMEM and 10 ul/well of MTT reagent (ATTC cat #30-1010K) were added. The plate was incubated at 37° C., 5% CO2 for 2-3 hrs until a purple precipitate is visible. 100 ul of Detergent Reagent (ATTC cat #30-1010K) is added to each well. The plate was covered from the light, wrapped in Parafilm to prevent evaporation, and left overnight at room temperature in the dark. The plate was shaken for 5 min and the absorbance at 570 nm is measured. To calculate the dose response, the absorbance value of control wells not containing cells was subtracted from each test well.

A further data set has as its target T2, RPMI 8866 cells (Homo sapiens, UniProt P13612+P26010).
T2 sequence (P13612 34-1032): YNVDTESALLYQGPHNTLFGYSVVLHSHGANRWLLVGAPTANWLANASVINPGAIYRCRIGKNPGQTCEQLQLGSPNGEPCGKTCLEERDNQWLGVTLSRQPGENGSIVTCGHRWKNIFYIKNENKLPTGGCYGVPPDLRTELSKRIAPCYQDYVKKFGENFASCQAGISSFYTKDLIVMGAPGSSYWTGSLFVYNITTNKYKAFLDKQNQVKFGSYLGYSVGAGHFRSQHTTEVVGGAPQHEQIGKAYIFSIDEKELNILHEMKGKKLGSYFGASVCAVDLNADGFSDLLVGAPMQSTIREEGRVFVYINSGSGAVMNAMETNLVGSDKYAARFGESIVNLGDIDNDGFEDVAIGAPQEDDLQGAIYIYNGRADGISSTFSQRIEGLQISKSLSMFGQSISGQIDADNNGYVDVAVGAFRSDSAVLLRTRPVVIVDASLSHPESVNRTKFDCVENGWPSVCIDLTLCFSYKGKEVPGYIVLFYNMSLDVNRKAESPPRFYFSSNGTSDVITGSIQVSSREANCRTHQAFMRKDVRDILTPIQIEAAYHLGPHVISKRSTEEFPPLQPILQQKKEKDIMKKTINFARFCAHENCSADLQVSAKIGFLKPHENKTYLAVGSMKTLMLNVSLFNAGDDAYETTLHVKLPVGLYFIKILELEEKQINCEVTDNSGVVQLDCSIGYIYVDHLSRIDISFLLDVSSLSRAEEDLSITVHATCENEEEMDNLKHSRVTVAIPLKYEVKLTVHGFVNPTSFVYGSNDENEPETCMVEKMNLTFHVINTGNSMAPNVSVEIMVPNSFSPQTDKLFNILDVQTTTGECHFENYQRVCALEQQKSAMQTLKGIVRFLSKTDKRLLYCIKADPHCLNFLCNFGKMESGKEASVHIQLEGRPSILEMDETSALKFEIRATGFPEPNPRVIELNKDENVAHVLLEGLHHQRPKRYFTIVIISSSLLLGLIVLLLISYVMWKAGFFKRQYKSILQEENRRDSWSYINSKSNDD
T2 sequence (P26010 20-798): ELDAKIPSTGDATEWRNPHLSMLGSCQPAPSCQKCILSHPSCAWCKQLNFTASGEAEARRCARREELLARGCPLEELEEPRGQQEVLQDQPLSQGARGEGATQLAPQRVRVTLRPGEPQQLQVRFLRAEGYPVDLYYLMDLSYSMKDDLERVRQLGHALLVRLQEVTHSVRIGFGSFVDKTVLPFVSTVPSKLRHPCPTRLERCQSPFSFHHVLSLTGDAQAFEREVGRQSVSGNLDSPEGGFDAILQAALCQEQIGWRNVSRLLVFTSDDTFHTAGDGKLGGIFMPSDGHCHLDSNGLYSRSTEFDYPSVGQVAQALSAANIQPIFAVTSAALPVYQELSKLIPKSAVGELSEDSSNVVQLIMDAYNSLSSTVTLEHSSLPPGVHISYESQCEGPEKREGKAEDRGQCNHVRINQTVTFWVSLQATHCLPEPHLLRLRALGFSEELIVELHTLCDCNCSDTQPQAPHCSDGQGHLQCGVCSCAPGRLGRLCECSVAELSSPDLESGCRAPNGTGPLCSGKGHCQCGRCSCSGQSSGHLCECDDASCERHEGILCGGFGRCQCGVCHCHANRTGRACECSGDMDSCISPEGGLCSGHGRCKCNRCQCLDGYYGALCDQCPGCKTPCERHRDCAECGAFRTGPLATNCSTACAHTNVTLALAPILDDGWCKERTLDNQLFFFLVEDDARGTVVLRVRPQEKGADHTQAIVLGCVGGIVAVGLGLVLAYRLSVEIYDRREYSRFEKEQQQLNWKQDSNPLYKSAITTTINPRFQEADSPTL
As to the kind of experiment: α4β7-MAdCAM Cell Adhesion Assay. The format is cell-based. The note with it: thioether peptide dimers, Table 7; read-out: Cell-Adhesion A4B7. The gist of the method:
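Peptide inhibition of adhesion measured with MAdCAM-1/Fc chimera immobilised at 200 ng/well and MnCl2-activated (1 mM) RPMI 8866 cells, 30-45 min at 37° C. Adherent cells remaining after three washes detected by MTT reduction at 570 nm, corrected for no-cell wells, giving dose response.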

Where a SMILES comes first, the peptide text is derived from it. A value given as a limit tells only on which side of the number the result lay.

T1 sequence (P05556 21-728 limits assumed, one chain of several): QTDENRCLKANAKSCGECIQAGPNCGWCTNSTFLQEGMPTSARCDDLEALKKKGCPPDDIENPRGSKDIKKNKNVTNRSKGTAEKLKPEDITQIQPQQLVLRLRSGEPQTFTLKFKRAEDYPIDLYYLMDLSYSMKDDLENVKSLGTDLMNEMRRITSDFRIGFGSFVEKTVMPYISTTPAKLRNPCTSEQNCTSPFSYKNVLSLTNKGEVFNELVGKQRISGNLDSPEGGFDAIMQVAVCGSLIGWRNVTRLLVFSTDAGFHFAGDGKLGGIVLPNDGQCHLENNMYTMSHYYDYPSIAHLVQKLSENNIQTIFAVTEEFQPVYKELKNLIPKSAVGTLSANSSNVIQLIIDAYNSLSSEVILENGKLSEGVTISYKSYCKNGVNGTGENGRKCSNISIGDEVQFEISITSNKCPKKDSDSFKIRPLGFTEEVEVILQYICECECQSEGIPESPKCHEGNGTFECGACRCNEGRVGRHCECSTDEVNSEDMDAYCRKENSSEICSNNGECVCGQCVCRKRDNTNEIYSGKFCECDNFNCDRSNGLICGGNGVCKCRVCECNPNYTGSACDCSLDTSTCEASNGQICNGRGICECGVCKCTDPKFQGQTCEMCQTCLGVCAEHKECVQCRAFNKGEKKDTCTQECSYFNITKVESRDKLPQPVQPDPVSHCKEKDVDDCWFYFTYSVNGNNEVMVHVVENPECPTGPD
Chain of Jurkat E6.1 cells (P05556 21-798, one chain of several): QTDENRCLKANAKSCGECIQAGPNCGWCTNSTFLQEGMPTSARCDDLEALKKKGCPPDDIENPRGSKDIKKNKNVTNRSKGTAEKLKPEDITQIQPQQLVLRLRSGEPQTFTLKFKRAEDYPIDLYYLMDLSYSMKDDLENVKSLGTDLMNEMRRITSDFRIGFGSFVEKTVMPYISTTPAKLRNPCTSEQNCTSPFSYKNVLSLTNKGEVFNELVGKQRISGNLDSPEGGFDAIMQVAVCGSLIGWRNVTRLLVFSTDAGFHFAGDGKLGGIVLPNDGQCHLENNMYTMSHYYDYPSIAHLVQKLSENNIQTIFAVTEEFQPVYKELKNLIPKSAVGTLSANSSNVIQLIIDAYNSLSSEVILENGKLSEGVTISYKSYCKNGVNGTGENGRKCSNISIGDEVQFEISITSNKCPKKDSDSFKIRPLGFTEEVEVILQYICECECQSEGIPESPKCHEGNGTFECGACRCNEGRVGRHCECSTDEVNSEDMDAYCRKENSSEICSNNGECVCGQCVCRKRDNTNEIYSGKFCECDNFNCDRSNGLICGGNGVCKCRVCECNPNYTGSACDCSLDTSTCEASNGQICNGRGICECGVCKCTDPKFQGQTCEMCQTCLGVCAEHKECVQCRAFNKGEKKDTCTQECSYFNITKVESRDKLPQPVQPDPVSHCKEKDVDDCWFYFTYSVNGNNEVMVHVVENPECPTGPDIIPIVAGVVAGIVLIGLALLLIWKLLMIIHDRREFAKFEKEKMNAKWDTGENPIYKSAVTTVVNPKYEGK

The term half-life denotes the time needed for the level to fall by half in the phase considered. As to `CC(C)C[C@@H]1NC(=O)[C@H]([C@@H](C)O)NC(=O)[C@H](CC(=O)O)NC(=O)[C@H](CO)NC(=O)[C@H](CCCNC(=N)N)N(C)C(=O)c2ccccc2CSC(C)(C)[C@@H](C(=O)N[C@@H](Cc2c[nH]c3ccccc23)C(=O)N[C@@H](CCC(=O)O)CC(=O)N[C@H](CCCCN)C(N)=O)NC1=O` [compound 151] (HELM PEPTIDE1{[meR].S.D.T.L.[Pen].W.[O=C(O)CC[C@@H](CC(=O)[*:2])N[*:1]].[dK].[am]}|CHEM1{[O=C(c1ccccc1C[*:2])[*:1]]}$PEPTIDE1,CHEM1,1:R1-1:R1|PEPTIDE1,CHEM1,6:R3-1:R2$$$V2.0), the IC50 at α4β1 was 25 to 100 nM. For the same compound, the half-life at 22 μM in data set [1] is above 3 h.

As for `CC(C)C[C@@H]1NC(=O)[C@H]([C@@H](C)O)NC(=O)[C@H](CC(=O)O)NC(=O)[C@H](CO)NC(=O)[C@H](CCCNC(=N)N)N(C)C(=O)c2ccccc2CSC(C)(C)[C@@H](C(=O)N[C@@H](Cc2ccc3ccccc3c2)C(=O)N[C@@H](CCC(=O)O)CC(=O)N[C@H](CCCCN)C(N)=O)NC1=O` [compound 161], the IC50 on α4β1 is 25 to 100 nM; on Jurkat E6.1 cells it was above 100000 nM. This compound also yielded a half-life at 22 μM in data set [1] above 3 h.

Turning to `CC(C)C[C@@H]1NC(=O)[C@H]([C@@H](C)O)NC(=O)[C@H](CC(=O)O)NC(=O)[C@H](CO)NC(=O)[C@H](CCCNC(=N)N)N(C)C(=O)c2ccccc2CSC(C)(C)[C@@H](C(=O)N[C@@H](Cc2ccc(O)cc2)C(=O)N[C@@H](CCC(=O)O)C(=O)N[C@H](CCCCN)C(N)=O)NC1=O` [compound 168] (HELM PEPTIDE1{[meR].S.D.T.L.[Pen].Y.E.[dK].[am]}|CHEM1{[O=C(c1ccccc1C[*:2])[*:1]]}$PEPTIDE1,CHEM1,1:R1-1:R1|PEPTIDE1,CHEM1,6:R3-1:R2$$$V2.0), the IC50 is 25 to 100 nM on α4β1 and above 100000 nM at Jurkat E6.1 cells.

Consider `CC(C)C[C@@H]1NC(=O)[C@H]([C@@H](C)O)NC(=O)[C@H](CC(=O)O)NC(=O)[C@H](CO)NC(=O)[C@H](CCCNC(=N)N)N(C)C(=O)c2ccccc2CSC(C)(C)[C@@H](C(=O)N[C@@H](Cc2c[nH]c3ccccc23)C(=O)N[C@H](CCC(=O)O)C(=O)N[C@@H](CO)C(=O)N[C@H](CCCCN)C(N)=O)NC1=O` [compound 191] (HELM PEPTIDE1{[meR].S.D.T.L.[Pen].W.[dE].S.[dK].[am]}|CHEM1{[O=C(c1ccccc1C[*:2])[*:1]]}$PEPTIDE1,CHEM1,1:R1-1:R1|PEPTIDE1,CHEM1,6:R3-1:R2$$$V2.0), for which the results for the IC50 on RPMI 8866 cells and on Jurkat E6.1 cells were below 25 nM and above 100000 nM, respectively.

Turning to `CC(C)C[C@@H]1NC(=O)[C@H]([C@@H](C)O)NC(=O)[C@H](CC(=O)O)NC(=O)[C@H](CO)NC(=O)[C@H](CCCNC(=N)N)N(C)C(=O)c2ccccc2CSC(C)(C)[C@@H](C(=O)N[C@@H](Cc2c[nH]c3ccccc23)C(=O)N[C@H](CCC(=O)O)C(=O)N[C@@H](CCC(=O)O)C(=O)N[C@H](CCCCN)C(N)=O)NC1=O` [compound 194] (HELM PEPTIDE1{[meR].S.D.T.L.[Pen].W.[dE].E.[dK].[am]}|CHEM1{[O=C(c1ccccc1C[*:2])[*:1]]}$PEPTIDE1,CHEM1,1:R1-1:R1|PEPTIDE1,CHEM1,6:R3-1:R2$$$V2.0), the IC50 at RPMI 8866 cells is below 25 nM; at α4β1, 100 to 1000 nM.

Source of the values: patent US20260217767A1, “NOVEL A4B7 THIOETHER PEPTIDE DIMER ANTAGONISTS” (Protagonist Therapeutics, Inc., priority 2014, published 2026).
